The results in this text go back to patent publication US20260234164A1, “BIPHENYL COMPOUND AS IMMUNOMODULATOR, PREPARATION METHOD THEREFOR AND USE THEREOF” (SHENZHEN CHIPSCREEN BIOSCIENCES CO., LTD., priority 2021, published 2026).

One assay concerns the target T1, CD80/PD-L1 binding (Homo sapiens, UniProt Q9NZQ7).
T1 construct: purchased Sino Biological Inc. 10084-H02H-100 (PD-L1-Fc); 10698-H08H-100 (His-CD80)
The assay can be described thus: HTRF inhibition of CD80/PD-L1 binding in vitro. The note with it: His-CD80 100 nM, PD-L1-Fc 2 nM, read-out: IC50 inhibiting CD80/PD-L1 binding in vitro. An excerpt: In addition to PD-1, PD-L1 can also exert immunosuppressive activity by binding to CD80. Similarly, in vitro experiments of binding or binding inhibition of CD80 and PD-L1 can also be measured by homogeneous time-resolved fluorescence (HTRF). When the anti-hFc-Eu^3+ antibody and anti-His-XL665 antibody were bound to the hFC tag fused to PD-L1 and the His tag fused to CD80 respectively, and excited with a 320 nm wavelength laser, the binding of PD-L1 and CD80 enabled energy to be transferred from the Eu element to the XL665 fluorescein, which was excited to emit light. When the inhibitor of the interaction between PD-L1 and CD80 was added, the combination of the two was destroyed, so that the distance between Eu and XL665 was far away, the energy cannot be transferred, and XL665 would not be excited.
Recombinant human CD80 protein with His tag (His-CD80 protein, Cat #: 10698-H08H-100), and recombinant human PD-L1-Fc fusion protein (PD-L1-Fc fusion protein, Cat #: 10084-H02H-100) were purchased from Sino Biological Inc., anti-hFc-Eu^3+ antibody and anti-His-XL665 antibody were purchased from Cisbio Company, and other related reagents such as dilution buffer (Diluent buffer 5, Cat #: 62DL5DDC), detection buffer (PPI-Europium detection buffer, Cat #: 61DB9RDF) were purchased from Cisbio Company. Fluorescence detection instrument Tecan (Spark 10 M) was purchased from Switzerland Tecan Company.
(1) Experimental preparation: The test compound was diluted with dilution buffer into different concentration gradients (the highest final concentration in 20 μL final reaction system was 10 μM), His-CD80 protein was diluted to 800 nM (the final concentration in 20 μL final reaction system was 100 nM), and the PD-L1-Fc fusion protein was diluted to 16 nM (final concentration was 2 nM). The anti-His-XL665 antibody and anti-hFc-Eu^3+ antibody were respectively diluted 20 times and 100 times using the detection buffer according to the reagent requirements.
(2) 5 μL of test compound, 2.5 μL of Hid-CD80 protein and 2.5 μL of […] solution were mixed, and incubated at room temperature for 15 min. Then the system was added with 5 μL of anti-His-XL665 antibody and 5 μL of anti-hFc-Eu^3+ antibody, incubated for another 3 h, and then detected.
(3) When detecting the reaction, a control group was provided, including a 0% inhibition positive control without adding test compounds and a 100% inhibition negative control without adding CD-80 protein. All detections were performed with duplicates.
(4) The fluorescence signal of each well was measured using a fluorescence detector Tecan (Spark 10M) at an excitation wavelength of 320 nm, and emission wavelengths of 620 nm and 665 nm, respectively. The intensity of the mutual binding of CD80 and PD-L1 referred to the ratio of fluorescence signals Em665/Em620.
(5) The binding inhibition rate of the test compound was calculated as follows: Inhibition rate (%)=[1−(Fluorescence signal ratio of detection well-fluorescence signal ratio of 100% inhibition negative control)]/(fluorescence signal ratio of 0% inhibition positive control-fluorescence signal ratio of 100% inhibition negative control)×100%. After calculating the inhibition rate on CD80/PD-L1 binding of the test compounds with different concentration gradients, the 50% inhibitory concentration (IC50) was calculated.
Background: Time-resolved FRET reads energy transfer from a long-lived donor to a nearby acceptor.

The target in a further assay is T2, PD-1/PD-L1 binding (Homo sapiens, UniProt Q9NZQ7).
T2 construct: purchased Sino Biological Inc. 10084-H02H-100 (PD-L1-Fc); 10377-H08H-50 (His-PD-1)
Put plainly: HTRF inhibition of PD-1/PD-L1 binding in vitro. The note with it: His-PD-1 100 nM, PD-L1-Fc 2 nM, read-out: IC50 inhibiting PD-1/PD-L1 binding in vitro. An excerpt:
Homogeneous Time-Resolved Fluorescence (HTRF): This method used the recombinant human PD-L1 protein fused to express the hFc tag and the recombinant human PD-1 protein fused to express the His tag, both of which were interacting ligands and receptors. When the anti-hFc antibody containing Eu element chelation marker and the anti-His antibody labeled with XL665 fluorescein were bound with the above two corresponding labels, and excited by a laser with a wavelength of 320 nm, the ligand-receptor binding enabled the energy to be transferred from the Eu element to the XL665 fluorescein, which was excited to emit light at a wavelength of 665 nm. However, when an inhibitor of the interaction between PD-L1 and PD-1 was added, the binding of the ligand to the receptor was destroyed, so that the distance between Eu and XL665 was far away, the energy cannot be transferred, and XL665 would not be excited.
Recombinant human PD-1 protein with His tag (His-PD-1 protein, Cat #: 10377-H08H-50), and recombinant human PD-L1-Fc fusion protein (PD-L1-Fc fusion protein, Cat #: 10084-H02H-100) were purchased from Sino Biological Inc., […] and anti-His-XL665 antibody were purchased from Cisbio Company, and other related reagents such as dilution buffer (Diluent buffer 5, Cat #: 62DL5DDC), detection buffer (PPI-Europium detection buffer, Cat #: 61DB9RDF) were purchased from Cisbio Company. Fluorescence detection instrument Tecan (Spark 10 M) was purchased from Switzerland Tecan Company.
(1) Experimental preparation: The test compound was diluted with dilution buffer into different concentration gradients (the highest final concentration in 20 μL final reaction system was 10 μM), His-PD-1 protein was diluted to 800 nM (the final concentration in 20 μL final reaction system was 100 nM), and the PD-L1-Fc fusion protein was diluted to 16 nM (final concentration was 2 nM). The anti-His-XL665 antibody and anti-hFc-Eu^3+ antibody were respectively diluted 20 times and 100 times using the detection buffer according to the reagent requirements.
(2) 5 μL of test compound, 2.5 μL of PD-L1-Fc fusion protein and 2.5 μL of His-PD-1 protein solution were mixed, and incubated at room temperature for 15 min. Then the system was added with 5 μL of anti-His-XL665 antibody and 5 μL of anti-hFc-Eu^3+ antibody, incubated for another 3 h, and then detected.
(3) When detecting the reaction, a control group was also provided, including a 0% inhibition positive control without adding test compounds and a 100% inhibition negative control without adding PD-1 protein. All detections were performed with duplicates.
(4) The fluorescence signal of each well was measured using a fluorescence detector Tecan (Spark 10M) at an excitation wavelength of 320 nm, and emission wavelengths of 620 nm and 665 nm, respectively. The intensity of the mutual binding of PD-1 and PD-L1 referred to the ratio of fluorescence signals Em665/Em620.
(5) The binding inhibition rate of the test compound was calculated as follows: Inhibition rate (%)=[1−(Fluorescence signal ratio of detection well-fluorescence signal ratio of 100% inhibition negative control)]/(fluorescence signal ratio of 0% inhibition positive control-fluorescence signal ratio of 100% inhibition negative control)×100%. After calculating the inhibition rate on PD-1/PD-L1 binding of the test compounds with different concentration gradients, the 50% inhibitory concentration (IC50) was calculated.

T2 sequence (Q9NZQ7 19-239 limits assumed): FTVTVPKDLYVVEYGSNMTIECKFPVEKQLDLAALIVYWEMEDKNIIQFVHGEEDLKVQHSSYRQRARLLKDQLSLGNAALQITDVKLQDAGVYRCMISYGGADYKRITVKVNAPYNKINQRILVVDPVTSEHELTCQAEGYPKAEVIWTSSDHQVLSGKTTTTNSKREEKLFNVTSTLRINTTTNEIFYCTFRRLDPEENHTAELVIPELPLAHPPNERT
T1 sequence (Q9NZQ7 19-239 limits assumed): as above

As for `[2H]C([2H])([2H])n1c(C(=O)Nc2cccc(-c3cccc(NC(=O)c4nc5c(n4C([2H])([2H])[2H])CCN(CCC46CCC(COC)(CC4)C6)C5)c3Cl)c2C)nc2c1CCN(CCC13CCC(C(=O)O)(CC1)C3)C2` [Compound I-12, 4-(2-(2-((2′-chloro-3′-(5-(2-(4-(methoxymethyl)bicyclo[2.2.1]heptane-1-yl)ethyl)-1-(methyl-d3)-4,5,6,7-tetrahydro-1H-imidazo[4,5-c]pyridine-2-carboxamido)-2-methyl-[1,1′-biphenyl]-3-yl)carbamoyl)-1-(methyl-d3)-1,4,6,7-tetrahydro-5H-imidazo[4,5-c]pyridin-5-yl)ethyl)bicyclo [2.2.1]heptane-1-carboxylic acid], the IC50 is 2.94 nM at CD80/PD-L1 binding and 3.8 nM on PD-1/PD-L1 binding.

`[2H]c1c([2H])c(NC(=O)c2nc3c(n2C([2H])([2H])[2H])CCN(CCC24CCC(COC([2H])([2H])[2H])(CC2)C4)C3)c(Cl)c(-c2c([2H])c([2H])c([2H])c(NC(=O)c3nc4c(n3C([2H])([2H])[2H])CCN(CCC35CCC(C(=O)O)(CC3)C5)C4)c2Cl)c1[2H]` [Compound I-13, 4-(2-(2-((2,2′-dichloro-3′-(5-(2-(4-((methoxy-d3)methyl)bicyclo[2.2.1]heptane-1-yl)ethyl)-1-(methyl-d3)-4,5,6,7-tetrahydro-1H-imidazo[4,5-c]pyridine-2-carboxamido)-[1,1′-biphenyl]-3-yl-4,4′, 5,5′,6,6′-d6)carbamoyl)-1-(methyl-d3)-1,4,6,7-tetrahydro-5H-imidazo[4,5-c]pyridin-5-yl)ethyl)bicyclo[2.2.1]heptane-1-carboxylic acid]: the IC50 was 1.44 nM on CD80/PD-L1 binding and 1.23 nM at PD-1/PD-L1 binding.
